According to paper PMC10175918 (Communications Biology, 2023):
Like-named read-outs stand apart in the source and are kept apart here.

What was measured:
Test in all cases: TGFα-shedding assay-based GPCR screening with chimeric Gα subunit proteins
Type in all cases: cell-based
348 GPCRs [1] = target: T1, 348 GPCRs (Homo sapiens, UniProt P08908); settings: 10µM, Favipiravir 100μM
T1 construct: expressed in transfected cells; host or cells: HEK293A
T1 sequence (P08908 1-422): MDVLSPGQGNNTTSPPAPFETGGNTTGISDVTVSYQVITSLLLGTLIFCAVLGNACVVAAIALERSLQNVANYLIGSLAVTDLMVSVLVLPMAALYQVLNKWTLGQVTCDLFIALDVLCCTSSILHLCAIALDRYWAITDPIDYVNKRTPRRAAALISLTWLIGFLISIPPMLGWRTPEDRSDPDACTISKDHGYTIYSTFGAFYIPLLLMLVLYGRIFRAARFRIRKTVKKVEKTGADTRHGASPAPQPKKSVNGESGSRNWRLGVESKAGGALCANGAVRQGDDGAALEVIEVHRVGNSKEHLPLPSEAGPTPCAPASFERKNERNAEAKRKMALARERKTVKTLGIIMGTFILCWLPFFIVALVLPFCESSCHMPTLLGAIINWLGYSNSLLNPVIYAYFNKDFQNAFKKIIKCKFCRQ

348 GPCRs [2] = target: T2, 348 GPCRs (Homo sapiens, UniProt Q14831); settings: 10µM, Favipiravir 100μM
T2 construct: expressed in transfected cells; host or cells: HEK293A
T2 sequence (Q14831 35-915): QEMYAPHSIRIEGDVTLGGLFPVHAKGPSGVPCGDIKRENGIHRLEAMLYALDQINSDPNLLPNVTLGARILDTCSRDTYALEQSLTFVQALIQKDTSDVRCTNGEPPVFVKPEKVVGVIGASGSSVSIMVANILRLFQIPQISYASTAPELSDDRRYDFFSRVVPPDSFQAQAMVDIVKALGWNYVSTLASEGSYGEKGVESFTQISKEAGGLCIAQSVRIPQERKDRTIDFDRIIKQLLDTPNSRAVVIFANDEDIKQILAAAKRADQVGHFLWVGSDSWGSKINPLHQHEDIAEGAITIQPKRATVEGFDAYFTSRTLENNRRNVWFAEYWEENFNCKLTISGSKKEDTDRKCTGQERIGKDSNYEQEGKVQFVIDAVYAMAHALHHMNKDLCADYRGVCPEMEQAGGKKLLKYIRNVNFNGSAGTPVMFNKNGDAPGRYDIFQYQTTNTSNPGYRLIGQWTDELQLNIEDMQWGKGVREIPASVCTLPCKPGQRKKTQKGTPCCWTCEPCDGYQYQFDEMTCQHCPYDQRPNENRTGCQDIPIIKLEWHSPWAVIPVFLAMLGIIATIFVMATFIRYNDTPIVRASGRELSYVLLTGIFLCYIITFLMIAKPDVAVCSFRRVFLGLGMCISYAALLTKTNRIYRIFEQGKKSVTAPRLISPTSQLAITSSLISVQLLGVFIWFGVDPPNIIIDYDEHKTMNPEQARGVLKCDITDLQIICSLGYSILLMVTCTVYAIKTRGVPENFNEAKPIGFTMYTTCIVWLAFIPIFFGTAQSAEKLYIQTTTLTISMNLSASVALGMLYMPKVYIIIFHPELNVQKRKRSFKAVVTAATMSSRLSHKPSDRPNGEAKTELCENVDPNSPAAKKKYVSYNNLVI

348 GPCRs [3] = target: T3, 348 GPCRs (Homo sapiens, UniProt Q86SQ4); settings: 10µM, Favipiravir 100μM
T3 construct: expressed in transfected cells; host or cells: HEK293A
T3 sequence (Q86SQ4 38-1221): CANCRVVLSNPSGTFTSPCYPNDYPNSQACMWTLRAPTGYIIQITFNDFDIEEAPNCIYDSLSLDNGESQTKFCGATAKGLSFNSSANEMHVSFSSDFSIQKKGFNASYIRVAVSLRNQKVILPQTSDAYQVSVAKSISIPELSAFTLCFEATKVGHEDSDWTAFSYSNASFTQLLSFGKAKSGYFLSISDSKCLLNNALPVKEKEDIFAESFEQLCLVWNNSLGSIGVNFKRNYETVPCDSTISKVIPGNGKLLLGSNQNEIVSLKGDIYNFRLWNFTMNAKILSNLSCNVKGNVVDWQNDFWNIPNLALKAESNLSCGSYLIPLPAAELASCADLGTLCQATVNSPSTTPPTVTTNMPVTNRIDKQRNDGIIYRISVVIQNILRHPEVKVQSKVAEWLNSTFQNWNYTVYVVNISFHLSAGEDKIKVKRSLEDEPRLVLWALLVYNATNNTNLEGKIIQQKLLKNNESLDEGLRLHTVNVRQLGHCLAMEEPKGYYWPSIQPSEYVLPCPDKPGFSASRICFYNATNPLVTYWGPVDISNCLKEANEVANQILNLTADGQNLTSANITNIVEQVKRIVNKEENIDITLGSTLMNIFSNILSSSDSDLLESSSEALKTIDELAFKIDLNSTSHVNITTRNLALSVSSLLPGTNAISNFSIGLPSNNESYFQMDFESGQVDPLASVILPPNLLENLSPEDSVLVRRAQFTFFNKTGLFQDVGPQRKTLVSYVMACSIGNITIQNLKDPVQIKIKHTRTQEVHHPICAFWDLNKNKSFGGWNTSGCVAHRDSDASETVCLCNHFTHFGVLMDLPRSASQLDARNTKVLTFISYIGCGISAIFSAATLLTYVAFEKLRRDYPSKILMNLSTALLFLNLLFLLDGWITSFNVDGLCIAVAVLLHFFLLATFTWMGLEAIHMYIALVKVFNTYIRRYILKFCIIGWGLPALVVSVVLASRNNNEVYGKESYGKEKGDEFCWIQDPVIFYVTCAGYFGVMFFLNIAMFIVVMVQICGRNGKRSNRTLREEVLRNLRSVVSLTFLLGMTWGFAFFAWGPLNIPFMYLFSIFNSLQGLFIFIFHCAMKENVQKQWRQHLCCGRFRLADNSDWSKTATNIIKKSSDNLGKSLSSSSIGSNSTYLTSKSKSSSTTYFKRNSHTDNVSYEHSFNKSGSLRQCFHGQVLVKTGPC

348 GPCRs [4] = target: T4, 348 GPCRs (Homo sapiens, UniProt Q8IZF4)
T4 construct: expressed in transfected cells; host or cells: HEK293A
T4 sequence (Q8IZF4 22-528): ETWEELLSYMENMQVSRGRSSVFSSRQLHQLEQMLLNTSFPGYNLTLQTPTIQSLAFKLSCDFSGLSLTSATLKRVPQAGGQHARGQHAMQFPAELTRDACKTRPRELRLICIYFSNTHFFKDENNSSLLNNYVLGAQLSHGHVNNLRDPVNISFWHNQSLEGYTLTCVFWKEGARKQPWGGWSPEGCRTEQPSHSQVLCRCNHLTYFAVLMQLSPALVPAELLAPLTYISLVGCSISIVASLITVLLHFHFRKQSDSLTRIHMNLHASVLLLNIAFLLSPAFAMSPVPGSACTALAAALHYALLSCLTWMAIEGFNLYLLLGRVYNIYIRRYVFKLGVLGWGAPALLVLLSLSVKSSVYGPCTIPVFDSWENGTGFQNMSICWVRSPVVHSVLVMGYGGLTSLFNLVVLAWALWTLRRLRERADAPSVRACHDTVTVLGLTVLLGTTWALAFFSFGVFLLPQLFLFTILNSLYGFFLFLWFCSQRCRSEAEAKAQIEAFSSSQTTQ

348 GPCRs [5] = target: T5, 348 GPCRs (Homo sapiens, UniProt Q15077)
T5 construct: expressed in transfected cells; host or cells: HEK293A
T5 sequence (Q15077 whole entry): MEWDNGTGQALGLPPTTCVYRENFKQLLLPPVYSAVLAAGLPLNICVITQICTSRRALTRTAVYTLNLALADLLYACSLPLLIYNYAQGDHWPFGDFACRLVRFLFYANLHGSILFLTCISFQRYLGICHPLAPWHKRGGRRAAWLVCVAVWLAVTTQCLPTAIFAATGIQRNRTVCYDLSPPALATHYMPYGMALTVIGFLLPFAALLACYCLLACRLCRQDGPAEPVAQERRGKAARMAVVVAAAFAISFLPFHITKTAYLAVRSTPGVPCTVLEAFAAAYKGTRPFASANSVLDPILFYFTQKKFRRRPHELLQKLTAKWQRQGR

348 GPCRs [6] = target: T6, 348 GPCRs (Homo sapiens, UniProt P35410)
T6 construct: expressed in transfected cells; host or cells: HEK293A
T6 sequence (P35410 1-378): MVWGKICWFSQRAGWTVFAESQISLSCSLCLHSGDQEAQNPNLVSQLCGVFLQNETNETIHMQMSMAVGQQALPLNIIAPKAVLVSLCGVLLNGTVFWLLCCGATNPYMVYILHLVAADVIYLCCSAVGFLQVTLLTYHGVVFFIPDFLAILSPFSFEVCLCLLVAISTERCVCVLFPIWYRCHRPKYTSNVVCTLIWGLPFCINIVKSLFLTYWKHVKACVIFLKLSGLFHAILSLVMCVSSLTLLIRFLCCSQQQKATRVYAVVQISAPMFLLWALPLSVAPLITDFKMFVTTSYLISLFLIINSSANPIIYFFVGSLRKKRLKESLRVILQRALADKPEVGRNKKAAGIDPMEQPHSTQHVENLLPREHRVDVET

[7] = read-out: % GPCR activation compared to TPA, 5-HT1A (5-hydroxytryptamine receptor 1A)
[8] = read-out: % GPCR activation compared to TPA, GRM7 (glutamate receptor, metabotropic 7)
[9] = read-out: % GPCR activation compared to TPA, GPR126 (Adhesion G Protein-Coupled Receptor G6 (ADGRG6))
[10] = read-out: % GPCR activation compared to TPA, GPCR GPR114 (G-protein-coupled receptor 114 (ADGRG5))
[11] = read-out: % GPCR activation compared to TPA, GPCR P2Y6 (pyrimidinergic receptor P2Y, G-protein coupled, 6)
[12] = read-out: % GPCR activation compared to TPA, GPCR MAS1L (MAS1 oncogene-like)
[13] = 5-HT1A (5-hydroxytryptamine receptor 1A), read-out: % GPCR activation compared to TPA
[14] = GRM7 (glutamate receptor, metabotropic 7), read-out: % GPCR activation compared to TPA
[15] = GPR126 (Adhesion G Protein-Coupled Receptor G6 (ADGRG6)), read-out: % GPCR activation compared to TPA
[16] = GPCR GPR114 (G-protein-coupled receptor 114 (ADGRG5)), read-out: % GPCR activation compared to TPA
[17] = GPCR P2Y6 (pyrimidinergic receptor P2Y, G-protein coupled, 6), read-out: % GPCR activation compared to TPA
[18] = GPCR MAS1L (MAS1 oncogene-like), read-out: % GPCR activation compared to TPA

Structure (SMILES) | activation at 10 µM (348 GPCRs [1]; [7]) [%] | activation at 10 µM (348 GPCRs [2]; [8]) [%] | activation at 100 µM (348 GPCRs [3]; [9]) [%] | activation at 10 µM (348 GPCRs [4]; [10]) [%] | activation at 10 µM (348 GPCRs [5]; [11]) [%] | activation at 10 µM (348 GPCRs [6]; [12]) [%] | activation at 10 µM (348 GPCRs [1]; [13]) [%] | activation at 10 µM (348 GPCRs [2]; [14]) [%] | activation at 100 µM (348 GPCRs [3]; [15]) [%] | activation at 10 µM (348 GPCRs [4]; [16]) [%] | activation at 10 µM (348 GPCRs [5]; [17]) [%] | activation at 10 µM (348 GPCRs [6]; [18]) [%] | activation at 100 µM (348 GPCRs [4]; GPCR GPR114 (G-protein-coupled receptor 114 (ADGRG5)), 100μM, read-out: % GPCR activation compared to TPA) [%] | activation at 100 µM (348 GPCRs [5]; GPCR P2Y6 (pyrimidinergic receptor P2Y, G-protein coupled, 6), 100μM, read-out: % GPCR activation compared to TPA) [%] | activation at 100 µM (348 GPCRs [6]; GPCR MAS1L (MAS1 oncogene-like), 100μM, read-out: % GPCR activation compared to TPA) [%]
CC(C)OC(=O)[C@H](C)N[P@](=O)(OC[C@H]1O[C@@H](n2ccc(=O)[nH]c2=O)[C@](C)(F)[C@@H]1O)Oc1ccccc1 [sofosbuvir] | -0.274 | 10.4 | -2.49 | 0.492 | -26.6 | 0.457 |  |  |  |  |  |  |  |  | 
CC(C)C(=O)OC[C@H]1O[C@@H](n2ccc(NO)nc2=O)[C@H](O)[C@@H]1O [molnupiravir] |  |  |  |  |  |  | -1.27 | -1.87 | -3.31 | -2.86 | -17.8 | 0.3 |  |  | 
NC(=O)c1nc(F)cnc1O [favipiravir, 6-fluoro-3-hydroxy-2-pyrazinecarboxamide] |  |  |  |  |  |  | -0.504 | -0.143 | -2.03 |  |  |  | -2.55 | -0.384 | -0.101
N#C[C@@]1(c2ccc3c(N)ncnn23)O[C@H](CO)[C@@H](O)[C@H]1O [GS441524] |  |  |  |  |  |  | -0.48 | 1.06 | -3.47 | -2.76 | -8.65 | 3.15 |  |  | 
CCC(CC)COC(=O)[C@H](C)N[P@](=O)(OC[C@H]1O[C@@](C#N)(c2ccc3c(N)ncnn23)[C@H](O)[C@@H]1O)Oc1ccccc1 [remdesivir] | 1.91 | -0.738 | -0.536 | -1.51 | 1.18 | 0.269 |  |  |  |  |  |  |  |  | 
